Here are results for 39 compounds from patent US20030225152A1, “3-(Arylamino)methylene-1, 3-dihydro-2h-indol-2-ones as kinase inhibitors” (priority 2001, published 2003).

One assay deals with VEGF induced increases in intracellular calcium levels in HUVEC (human umbilical vein endothelial cells). In words: VEGF Stimulated Ca++ Signal in vitro (FLIPR). Format: cell-based. As to conditions: 10 μM, VEGF 5 ng/mL. The procedure: VEGF Stimulated Ca^++ Signal in vitro
Automated FLIPR (Fluorometric Imaging Plate Reader) technology was used to screen for inhibitors of VEGF induced increases in intracellular calcium levels in fluorescent dye loaded endothelial cells. HUVEC (human umbilical vein endothelial cells) (Clonetics) were seeded in 96-well fibronectin coated black-walled plates overnight at 37° C./5%CO2. Cells were loaded with calcium indicator Fluo-4 for 45 minutes at 37° C. Cells were washed 4 times (Original Cell Wash, Labsystems) to remove extracellular dye. Test compounds were reconstituted in 100% DMSO and added to the cells to give a final DMSO concentration of 0.1%. For screening, cells were pre-incubated with test agents for 30 minutes, at a single concentration (10 μM) or at concentrations ranging from 0.01 to 10.0 μM followed by VEGF stimulation (5 ng/mL). Changes in fluorescence at 516 nm were measured simultaneously in all 96 wells using a cooled CCD camera. Data were generated by determining max-min fluorescence levels for unstimulated, stimulated, and drug treated samples. IC50 values for test compounds were calculated from % inhibition of VEGF stimulated responses in the absence of inhibitor.
Turning to `O=C1Nc2ccc(Cl)cc2C1=CNc1ccc2c(c1)OCO2` [Example 68, 3-[(3,4-Metylenedioxyphenylamino)-methylene]-5-chloro-1,3-dihydro-indol-2-one], the “VEGF Stimulated Ca^++ signal assay % inhibition @ 10 μM” value is recorded as −2.50%.

In the case of “3-[(Bis-trifluoromethyl-phenylamino)-methylene]-1,3-dihydro-indol-2-one [Example 46]”, the “VEGF Stimulated Ca^++ signal assay % inhibition @ 10 μM” value is on record as −4.00%.

For the compound “4-[(2-Oxo-1,2-dihydro-indol-3-ylidenemethyl)-amino]-phospate [Example 84]”, the “VEGF Stimulated Ca^++ signal assay % inhibition @ 10 μM” value is recorded as 11.50%.

As to `COc1ccc(NC=C2C(=O)Nc3ccc(Cl)cc32)cc1F` [Example 105, 5-Chloro-3-[(3-flouro-4-methoxyphenylamino)-methylene]-1,3-dihydro-indol-2-one], the “VEGF Stimulated Ca^++ signal assay % inhibition @ 10 μM” value amounted to 17.50%.

The assay is the same for the next values; noted with them: Homo sapiens, 10 μM, VEGF 5 ng/mL.
For orientation: inhibition means the drop in the measured response relative to a control, in per cent. Take `O=C1Nc2ccccc2C1=CNc1ccc2c(c1)OCO2` [Example 80, 3-[(3,4-Methylenedioxyphenylamino)-methylene]-1,3-dihydro-indol-2-one]: the inhibition at 10 µM is 3.5%.

In the case of `O=C1Nc2ccccc2C1=CNc1cc(O)c(Cl)cc1F` [Example 28, 3-[(4-Chloro-2-fluoro-5-hydroxy-phenylamino)-methylene]-1,3-dihydro-indol-2-one], the inhibition at 10 µM stood at 32.5%.

On to `O=C1Nc2ccccc2C1=CNc1ccc(Cl)cc1` [Example 36, 3-[(4-Chlorophenylamino)-methylene]-1,3-dihydro-indol-2-one], for which the inhibition at 10 µM was 30%.

Turning to `Cc1ccc(NC=C2C(=O)Nc3ccccc32)c(F)c1` [Example 53, 3-[(2-Fluoro-4-methyl-phenylamino)-methylene]-1,3-dihydro-indol-2-one], the inhibition at 10 µM was determined as 2.5%.

Turning to `COc1ccc(NC=C2C(=O)Nc3ccccc32)cc1C(F)(F)F` [Example 55, 3-[(4-Methoxy-3-trifluoromethyl-phenylamino)-methylene]-1,3-dihydro-indol-2-one], the inhibition at 10 µM was 14.5%.

`Cc1ccc(NC=C2C(=O)Nc3cccc(C)c32)cc1C` [Example 95, 3-[(3,4-Dimethyl-phenylamino)-methylene]-4-methyl-1,3-dihydro-indol-2-one]: the inhibition at 10 µM was found to be 14%.

For the compound `Cc1ccc(NC=C2C(=O)Nc3ccc(Cl)cc32)cc1` [Example 79, 3-[(4-Methylphenylamino)-methylene]-5-chloro-1,3-dihydro-indol-2-one], the inhibition at 10 µM is -4%.

As for `Cc1ccc(NC=C2C(=O)Nc3ccccc32)cc1` [Example 18, 3-(p-Tolylamino-methylene)-1,3-dihydro-indol-2-one], the inhibition at 10 µM was 35.5%.

Regarding `CCN(CC)Cc1cc(NC=C2C(=O)Nc3cccc(C)c32)ccc1O` [Example 161, 3-[(3-Diethylaminomethyl-4-hydroxy-phenylamino)-methylene]-4-methyl-1,3-dihydro-indol-2-one], the inhibition at 10 µM turned out to be 95.2%.

On to `Cc1cc(NC=C2C(=O)Nc3ccc(Cl)cc32)ccc1C(C)C` [Example 112, 5-Chloro-3-[(4-i-propyl-3-methylphenylamino)-methylene]-1,3-dihydro-indol-2-one], for which the inhibition at 10 µM worked out at 10.5%.

`Cc1cccc2c1C(=CNc1ccc(C(N)=O)cc1)C(=O)N2` [Example 129, 4-[(4-Methyl-2-oxo-1,2-dihydro-indol-3-ylidenemethyl)-amino]-benzamide]: the inhibition at 10 µM was determined as 99%.

Consider `Cc1cc(C)cc(NC=C2C(=O)Nc3cccc(C)c32)c1` [Example 63, 3-[(3,5-Dimethyl-phenylamino)-methylene]-4-methyl-1,3-dihydro-indol-2-one], for which the inhibition at 10 µM is -14.5%.

As to `O=C1Nc2ccccc2C1CNc1cccc(Br)c1` (stereo not drawn) [Example 4, 3-[(3-Bromo-phenylamino)-methyl]-1,3-dihydro-indol-2-one], the inhibition at 10 µM came to 16.5%.

`N#Cc1ccc(NC=C2C(=O)Nc3ccc(Cl)cc32)cc1` [Example 152, 4-[(5-Chloro-2-oxo-1,2-dihydro-indol-3-ylidenemethyl)-amino]-benzonitrile]: the inhibition at 10 µM was found to be 18.7%.

For `CCc1ccccc1NC=C1C(=O)Nc2ccccc21` [Example 9, 3-[(2-Ethyl-phenylamino)-methylene}-1,3-dihydro-indol-2-one], the inhibition at 10 µM is 13.5%.

With `CCOc1ccc(NC=C2C(=O)Nc3ccc(Cl)cc32)cc1` [Example 107, 5-Chloro-3-[(4-ethoxyphenylamino)-methylene]-1,3-dihydro-indol-2-one], the inhibition at 10 µM was determined as 41.5%.

Take `Cc1c(F)cccc1NC=C1C(=O)Nc2ccccc21` [Example 11, 3-[(3-Fluoro-2-methyl-phenylamino)-methylene]-1,3-dihydro-indol-2-one]: the inhibition at 10 µM is -14%.

With `O=C1Nc2ccc(Cl)cc2C1=CNc1ccccc1` [Example 74, 3-[(Phenylamino)-methylene]-5-chloro-1,3-dihydro-indol-2-one], the inhibition at 10 µM worked out at 44%.

As for `O=C1Nc2ccccc2C1=CNc1ccc(Cl)c(C(=O)O)c1` [Example 37, 2-Chloro-5-[(2-oxo-1,2-dihydro-indol-3-ylidenemethyl)-amino]-benzoic acid], the inhibition at 10 µM is -4%.

As to `Cc1cccc2c1C(=CNc1ccc(O)c(C(=O)O)c1)C(=O)N2` [Example 118, 2-Hydroxy-5-[(4-methyl-2-oxo-1,2-dihydro-indol-3-ylidenemethyl)-amino]-benzoic acid], the inhibition at 10 µM is -27%.

Turning to `COc1cc(NC=C2C(=O)Nc3ccc(Cl)cc32)cc(OC)c1` [Example 75, 3-[(3,5-Dimethoxyphenylamino)-methylene]-5-chloro-1,3-dihydro-indol-2-one], the inhibition at 10 µM is -18%.

In the case of `O=C1Nc2ccccc2C1=CNc1ccc2c(c1)CCC2` [Example 23, 3-(Indan-5-ylaminomethylene)-1,3-dihydro-indol-2-one], the inhibition at 10 µM was determined as 42%.

Regarding `Cc1cccc2c1C(=CNc1ccc(C(=O)O)c(O)c1)C(=O)N2` [Example 155, 2-Hydroxy-4-[(4-methyl-2-oxo-1,2-dihydro-indol-3-ylidenemethyl)-amino]-benzoic acid], the inhibition at 10 µM came out at 97.2%.

For the compound `Cc1ccc(NC=C2C(=O)Nc3ccc(Cl)cc32)cc1O` [Example 71, 3-[(3-Hydroxy-4-methylphenylamino)-methylene]-5-chloro-1,3-dihydro-indol-2-one], the inhibition at 10 µM was 38.5%.

For the compound `O=C1Nc2ccccc2C1=CNc1ccc(C(F)(F)F)cc1` [Example 25, 3-[(4-Trifluoromethyl-phenylamino)-methylene]-1,3-dihydro-indol-2-one], the inhibition at 10 µM was -1.5%.

In the case of `O=C1Nc2ccc(Cl)cc2C1=CNc1ccc(OC(F)(F)F)cc1` [Example 66, 3-[(4-Trifluoromethoxyphenylamino)-methylene]-5-chloro-1,3-dihydro-indol-2-one], the inhibition at 10 µM was 18.5%.

Turning to `Cc1ccc(NC=C2C(=O)Nc3cccc(C)c32)cc1` [Example 62, 4-Methyl-3-(p-tolylamino-methylene)-1,3-dihydro-indol-2-one], the inhibition at 10 µM was 33%.

Consider `COc1cc(NC=C2C(=O)Nc3ccc(Cl)cc32)c(OC)cc1Cl` [Example 104, 5-Chloro-3-[(4-chloro-2,5-dimethoxy-phenylamino)-methylene]-1,3-dihydro-indol-2-one], for which the inhibition at 10 µM was -14.5%.

In the case of `COc1cc(NC=C2C(=O)Nc3cccc(C)c32)cc(OC)c1` [Example 61, 3-[(3,5-Dimethoxy-phenylamino)-methylene]-4-methyl-1,3-dihydro-indol-2-one], the inhibition at 10 µM was -4.5%.

In the case of `O=C1Nc2ccccc2C1=CNc1ccc(O)cc1` [Example 12, 3-[(4-Hydroxy-phenylamino)-methylene]-1,3-dihydro-indol-2-one], the inhibition at 10 µM is 94.2%.

The assay is the same for the next values; noted with them: Homo sapiens, 0.01 to 10.0 μM, VEGF 5 ng/mL.
As a reminder, the IC50 is the midpoint of a concentration-inhibition curve. Consider `Cc1cccc2c1C(=CNc1ccc(C(N)=O)cc1)C(=O)N2` [Example 129, 4-[(4-Methyl-2-oxo-1,2-dihydro-indol-3-ylidenemethyl)-amino]-benzamide], for which the IC50 came to 1.27 µM.

Take `O=C1Nc2cccc(F)c2C1=CNc1ccc(CCCCN2CCCCC2)cc1` [Example 321, 4-Fluoro-3-{[4-(4-piperidin-1-yl-butyl)-phenylamino]-methylene}-1,3-dihydro-indol-2-one]: the IC50 worked out at 1.18 µM.

Consider `O=C1Nc2ccccc2C1=CNc1ccc(CCCCN2CCOCC2)cc1` [Example 312, 3-{[4-(4-Morpholin-4-yl-butyl)-phenylamino]-methylene}-1,3-dihydro-indol-2-one], for which the IC50 worked out at 0.54 µM.

Regarding `O=C1Nc2cc(F)ccc2C1=CNc1ccc(CCCCN2CCOCC2)cc1` [Example 317, 6-Fluoro-3-{[4-(4-morpholin-4-yl-butyl)-phenylamino]-methylene}-1,3-dihydro-indol-2-one], the IC50 was 0.17 µM.

As for `Cc1cccc2c1C(=CNc1ccc(C(=O)O)c(O)c1)C(=O)N2` [Example 155, 2-Hydroxy-4-[(4-methyl-2-oxo-1,2-dihydro-indol-3-ylidenemethyl)-amino]-benzoic acid], the IC50 turned out to be 2.6 µM.

Take `O=C1Nc2ccc(Cl)cc2C1=CNc1ccc(CCCCN2CCCCC2)cc1` [Example 319, 5-Chloro-3-{[4-(4-piperidin-1-yl-butyl)-phenylamino]-methylene}-1,3-dihydro-indol-2-one]: the IC50 is 0.95 µM.

Take `Cc1cccc2c1C(=CNc1ccc(NCCCN3CCN(C)CC3)cc1)C(=O)N2` [Example 303, 4-Methyl-3-({4-[3-(4-methyl-piperazin-1-yl)-propylamino]-phenylamino}-methylene)-1,3-dihydro-indol-2-one]: the IC50 stood at 0.52 µM.

For `O=C1Nc2ccccc2C1=CNc1ccc(O)cc1` [Example 12, 3-[(4-Hydroxy-phenylamino)-methylene]-1,3-dihydro-indol-2-one], the IC50 turned out to be 1.07 µM.
